In patent US20070092577A1, “Dietary calcium for reducing the production of reactive oxygen species” (University of Tennessee Research Foundation, priority 2005, published 2007):

How the values were obtained:
[1] = test system: Mitochondrial potential in cultured wild-type 3T3-L1 adipocytes; assay: Mitochondrial membrane potential (JC-1); assay type: cell-based, murine; details: H2O2 100 nmol/L, 48 hours
Protocol: (§1) 3T3-L1 preadipocytes were incubated at a density of 8000 cells/cm^2 (10 cm^2 dish) and grown in Dulbecco's modified Eagle's medium (DMEM) containing 10% FBS and antibiotics (adipocyte medium) at 37° C. in 5% CO2 in air. Confluent preadipocytes were induced to differentiate with a standard differentiation medium consisting of DMEM-F 10 (1:1, vol/vol) medium supplemented with 1% FBS, 1 μM dexamethasone, IBMX (0.5 mM) and antibiotics (1% Penicillin-Streptomycin). Preadipocytes were maintained in this differentiation medium for 3 days and subsequently cultured in adipocyte medium. Cultures were re-fed every 2-3 days to allow 90% of cells to reach full differentiation before conducting chemical treatment. Chemicals were freshly diluted in adipocyte medium before treatment. […] Cell viability was measured via trypan blue exclusion.
Mitochondrial membrane potential was analyzed fluorometrically with a lipophilic cationic dye JC-1 (5,5′,6,6′-tetrachloro-1,1′,3,3′-tetraethylbenzimidazol carbocyanine iodide) using a mitochondrial potential detection kit (Biocarta, San Diego, Calif.). Mitochondrial potential was determined as the ratio of red fluorescence (excitation 550 nm, emission 600 mn) and green fluorescence (excitation 485 nm, emission 535 nm) using a fluorescence microplate reader.

TNFα = TNFα expression in RAW 264 macrophages; assay type: cell-based
Protocol: RAW 264 macrophages and 3T3-L1 preadipocytes (American Type Culture Collection) were incubated at a density of 8000 cells/cm2 (10 cm2 dish) and grown in Dulbecco's modified Eagle's medium (DMEM) containing 10% FBS and antibiotics (adipocyte medium) at 37° C. in 5% CO2 in air. Confluent 3T3-L1 preadipocytes were induced to differentiate with a standard differentiation medium consisting of DMEM-F10 (1:1, vol/vol) medium supplemented with 1% FBS, 1 μM dexamethasone, IBMX (0.5 mM) and antibiotics (1% Penicillin-Streptomycin). Preadipocytes were maintained in this differentiation medium for 3 days and subsequently cultured in adipocyte medium. Cultures were re-fed every 2-3 days to allow 90% cells to reach fully differentiation for 3T3-L1 adipocytes or grow to a confluence for RAW 264 before conducting chemical treatment.
Human adipocytes (Zen-Bio, Inc.), 3T3-L1 adipocytes, RAW264 macrophages were obtained and co-cultured by using transwell inserts with 0.4 μm porous membranes (Corning) to separate adipocytes and macrophages. All data are expressed as mean±SEM. Data were evaluated for statistical significance by analysis of one-way or two-way variance (ANOVA; means with different letter differ, p<0.05).
Adipocyte and muscle 18s, CD14, TNFα, MIP, M-CSF, IL-6 and MCP-1 were quantitatively measured using a Smart Cycler Real Time PCR System (Cepheid, Sunnyvale, Calif.) with a TaqMan 1000 Core Reagent Kit (Applied Biosystems, Branchburg, N.J.). The primers and probe sets were obtained from Applied Biosystems TaqMan® Assays-on-Demand™ Gene Expression primers and probe set collection according to manufacture's instruction. […] Reactions of quantitative RT-PCR for standards and unknown samples were also performed according to the instructions of Smart Cycler System (Cepheid, Sunnyvale, Calif.) and TaqMan Real Time PCR Core Kit (Applied Biosystems, Branchburg, N.J.). The mRNA quantitation for each sample was further normalized using the corresponding 18s quantitation.

cyclin A = assay: Cyclin A expression in 3T3-L1 adipocytes; assay type: cell-based, murine; details: added to glucose 30 mmol/L, 48 hours; nifedipine 10 μmol/L
Protocol: as §1, with “exclusion. Adipocyte 18s, cyclin A, NADPH oxidase, and UCP2 were quantitatively measured using a Smart Cycler Real Time PCR System (Cepheid, Sunnyvale, Calif.) with a TaqMan 1000 Core Reagent Kit (Applied Biosystems, Branchburg, N.J.). […] Reactions of quantitative RT-PCR for standards and unknown samples were also performed according to the instructions of Smart Cycler System (Cepheid, Sunnyvale, Calif.) and TaqMan Real Time PCR Core Kit (Applied Biosystems, Branchburg, N.J.). The mRNA quantitation for each sample was further normalized using the corresponding 18s quantitation.” for “exclusion.”

| Compound | increase of mitochondrial potential [1] [%] | effect on TNFα expression in macrophages in co-culture (TNFα; co-culture with differentiated 3T3-L1 adipocytes) | stimulation of TNFα expression (TNFα; macrophages cultured alone, calcitriol 10 nmol/L, 48 hours) [%] | effect on glucose stimulated cyclin A expression (cyclin A) |
| --- | --- | --- | --- | --- |
| OO [H2O2, hydrogen peroxide] | 72 | – | – | – |
| C=C1/C(=C\C=C2/CCC[C@]3(C)[C@@H]([C@H](C)CCCC(C)(C)O)CC[C@@H]23)C[C@@H](O)C[C@@H]1O [calcitriol, 1, 25-Dihydroxyvitamin D] | – | further enhanced | 91 | augmented |
